Values after ≈ are worked out from the molar mass of the structure shown. “Also recorded” adds a separate entry of the source. Read-outs that look alike come from different tables or passages of the source.
How the values were obtained:
S. aureus ATCC 25923 [1] = settings: Staphylococcus aureus ATCC 25923; ref [15]; cited from earlier work
[2] = tested on: HEK293 (human embryonic kidney cells); settings: human embryonic kidney cell line HEK293; ref [15]; read-out: IC50 cytotoxicity; cited from earlier work
P. aeruginosa ATCC 27853 [3] = settings: Pseudomonas aeruginosa; result in words; ref [15]; cited from earlier work
Cryptococcus neoformans = tested on: Cryptococcus neoformans; parameters: method as in PMID 30975502; settings: fungus Cryptococcus neoformans; ref [15]; cited from earlier work
[4] = tested on: rat skeletal myoblast cell line L6; parameters: method as in PMID 30975502; settings: ref [15], read-out: IC50 cytotoxicity; cited from earlier work
S. aureus ATCC 25923 [5] = assay: Antimicrobial susceptibility (MIC), S. aureus; assay type: cell-based, Staphylococcus aureus; settings: Staphylococcus aureus, ATCC25923; S. aureus ATCC 25923; mean (n = 3)
MRSA ATCC 43300 = assay: Antimicrobial susceptibility (MIC), MRSA; assay type: cell-based; settings: Staphylococcus aureus; MRSA ATCC 43300; mean (n = 2); read-out: MIC MRSA
In short: (§1)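 MICs against E. coli ATCC 25922 and P. aeruginosa ATCC 27853 followed previously reported protocols. MRSA ATCC 43300 and C. albicans ATCC 90028 were tested by CO-ADD under its standard protocols.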

P. aeruginosa ATCC 27853 [6] = assay: Antimicrobial susceptibility (MIC), P. aeruginosa; assay type: cell-based; settings: Pseudomonas aeruginosa, ATCC27853, mean (n = 3), read-out: MIC P. a
In short: as §1

E. coli ATCC 25922 = assay: Antimicrobial susceptibility (MIC), E. coli; assay type: cell-based; settings: Escherichia coli, ATCC25922, mean (n = 3)
In short: as §1

C. albicans ATCC 90028 = assay: Antifungal susceptibility (MIC), C. albicans; assay type: cell-based; settings: Candida albicans, ATCC90028, mean (n = 2)
In short: as §1

[7] = Cytotoxicity assay HEK293; assay type: cell-based, human; settings: human, HEK293 cells, mean (n = 2), read-out: Cyto. IC50 (concentration of compound at 50% cytotoxicity)
Protocol: (§2) Cytotoxicity assays were conducted according to previously reported protocols.

[8] = tested on: HEK293 (human embryonic kidney cells); assay: Cytotoxicity assay HEK293; assay type: cell-based; settings: mean (n = 2)
Protocol: as §2

P. aeruginosa ATCC 27853 [9] = assay: Antibiotic potentiation (MIC of antibiotics in the presence of synergizing compounds), P. aeruginosa; assay type: cell-based, Pseudomonas aeruginosa; settings: for Conc (µM) for Potentiation of doxycycline: concentration required to restore doxycycline activity at 2 µg/mL (4.5 µM) against P. aeruginosa ATCC 27853

SMILES | MIC (S. aureus ATCC 25923 [1]) | IC50 [2] | antibiotic enhancement in combination with doxycycline (P. aeruginosa ATCC 27853 [3]) | MIC (Cryptococcus neoformans) | IC50 [4] | MIC (S. aureus ATCC 25923 [5]) | MIC (MRSA ATCC 43300) | MIC (P. aeruginosa ATCC 27853 [6]) | MIC (E. coli ATCC 25922) | MIC (C. albicans ATCC 90028) | IC50 [7] | Cyto. IC50 (concentration of compound at 50% cytotoxicity) [8] | Concentration (µM) for Potentiation of chloramphenicol (P. aeruginosa ATCC 27853 [9]; P. aeruginosa ATCC 27853, chloramphenicol 2 µg/mL, mean (n = 3)) | Concentration (µM) for Potentiation of minocycline (P. aeruginosa ATCC 27853 [9]; P. aeruginosa ATCC 27853, minocycline 2 µg/mL, mean (n = 3)) | Concentration (µM) for Potentiation, no antibiotic (P. aeruginosa ATCC 27853 [9]; P. aeruginosa ATCC 27853, no antibiotic, mean (n = 3)) | Conc (µM) for Potentiation of doxycycline (P. aeruginosa ATCC 27853 [9])
O=C(NCCCNCCCCNCCCNC(=O)C(=O)c1c[nH]c2cc(Br)ccc12)C(=O)c1c[nH]c2cc(Br)ccc12 [Compound 1] | 6.25 µM (≈ 4.39 µg/mL) | 5.1 µM | strong antibiotic enhancement effect | 1.1 µM (≈ 0.773 µg/mL) | 7.7 µM |  |  |  |  |  |  |  |  |  |  | 
COc1ccc2[nH]cc(C(=O)C(=O)NCCCNCCCCCCNCCCNC(=O)C(=O)c3c[nH]c4ccc(OC)cc34)c2c1.O=C(O)C(F)(F)F.O=C(O)C(F)(F)F [Compound 19a, N^1,N^6-Bis(3-(2-(5-methoxy-1H-indol-3-yl)-2-oxoacetamido)propyl)hexane-1,6-diaminium 2,2,2-trifluoroacetate] |  |  |  |  |  | 29 µM | > 37 µM | > 200 µM | > 200 µM | > 37 µM | > 37 µM | non-toxic | 58 µM | 14.5 µM | >200 µM | 7.3 µM
Cc1cccc2c(C(=O)C(=O)NCCCNCCCCCCCNCCCNC(=O)C(=O)c3c[nH]c4c(C)cccc34)c[nH]c12.O=C(O)C(F)(F)F.O=C(O)C(F)(F)F [Compound 23b, N^1,N^7-Bis(3-(2-(7-methyl-1H-indol-3-yl)-2-oxoacetamido)propyl)heptane-1,7-diaminium 2,2,2-trifluoroacetate] |  |  |  |  |  | 14.8 µM | ≤ 0.3 µM | > 240 µM | 120 µM | > 38 µM | > 38 µM | non-cytotoxic; also recorded: no detectable cytotoxicity |  |  |  | 240 µM
Cc1cccc2c(C(=O)C(=O)NCCCNCCCCCCCCNCCCNC(=O)C(=O)c3c[nH]c4c(C)cccc34)c[nH]c12.O=C(O)C(F)(F)F.O=C(O)C(F)(F)F [Compound 23c, N^1,N^8-Bis(3-(2-(7-methyl-1H-indol-3-yl)-2-oxoacetamido)propyl)octane-1,8-diaminium 2,2,2-trifluoroacetate] |  |  |  |  |  | 7.3 µM | ≤ 0.29 µM | > 230 µM | 29 µM | > 37 µM | > 37 µM | non-cytotoxic; also recorded: no detectable cytotoxicity |  |  |  | 230 µM
